PubChem BioAssay (NCI)
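Here, GI50 denotes the concentration required for 50% inhibition of growth. TGI marks complete inhibition of growth.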

Legend:
Assay in all cases: NCI tumour cell line growth inhibition, 384-well format
HL-60(TB) leukemia = tested on: HL-60(TB) leukemia
HS 578T breast = tested on: HS 578T breast
SN12C renal = tested on: SN12C renal
OVCAR-4 ovarian = tested on: OVCAR-4 ovarian
SK-MEL-2 melanoma = tested on: SK-MEL-2 melanoma
HCT-15 colon = tested on: HCT-15 colon
HCC-2998 colon = tested on: HCC-2998 colon
SNB-75 CNS = tested on: SNB-75 CNS
RPMI-8226 leukemia = tested on: RPMI-8226 leukemia
SK-MEL-5 melanoma = tested on: SK-MEL-5 melanoma
TK-10 renal = tested on: TK-10 renal
UACC-62 melanoma = tested on: UACC-62 melanoma
NCI-H23 lung = tested on: NCI-H23 lung
HT29 colon = tested on: HT29 colon
CAKI-1 renal = tested on: CAKI-1 renal
OVCAR-3 ovarian = tested on: OVCAR-3 ovarian
UACC-257 melanoma = tested on: UACC-257 melanoma
EKVX NSCLC = tested on: EKVX NSCLC
NCI-H522 lung = tested on: NCI-H522 lung
NCI-H322M lung = tested on: NCI-H322M lung
MOLT-4 leukemia = tested on: MOLT-4 leukemia
MDA-MB-231 breast = tested on: MDA-MB-231 breast
A549 NSCLC = tested on: A549 NSCLC
NCI-H226 lung = tested on: NCI-H226 lung
NCI-H460 NSCLC = tested on: NCI-H460 NSCLC
HOP-62 NSCLC = tested on: HOP-62 NSCLC
SF-539 CNS = tested on: SF-539 CNS
HOP-92 NSCLC = tested on: HOP-92 NSCLC
CCRF-CEM leukemia = tested on: CCRF-CEM leukemia
MDA-MB-435 melanoma = tested on: MDA-MB-435 melanoma
LOX IMVI melanoma = tested on: LOX IMVI melanoma
COLO 205 colon = tested on: COLO 205 colon
SR leukemia = tested on: SR leukemia
K-562 leukemia = tested on: K-562 leukemia
DU-145 prostate = tested on: DU-145 prostate
BT-549 breast = tested on: BT-549 breast
SK-MEL-28 melanoma = tested on: SK-MEL-28 melanoma
MCF7 breast = tested on: MCF7 breast
786-0 renal = tested on: 786-0 renal
ACHN renal = tested on: ACHN renal
OVCAR-5 ovarian = tested on: OVCAR-5 ovarian
SF-295 CNS = tested on: SF-295 CNS
HCT-116 colon = tested on: HCT-116 colon
SNB-19 CNS = tested on: SNB-19 CNS
NCI/ADR-RES ovarian = tested on: NCI/ADR-RES ovarian
SK-OV-3 ovarian = tested on: SK-OV-3 ovarian
M14 melanoma = tested on: M14 melanoma
A498 renal = tested on: A498 renal
MDA-MB-468 breast = tested on: MDA-MB-468 breast
IGROV1 ovarian = tested on: IGROV1 ovarian
PC-3 prostate = tested on: PC-3 prostate
SW-620 colon = tested on: SW-620 colon
KM12 colon = tested on: KM12 colon
UO-31 renal = tested on: UO-31 renal
RXF 393 renal = tested on: RXF 393 renal
T-47D breast = tested on: T-47D breast
SF-268 CNS = tested on: SF-268 CNS
MALME-3M melanoma = tested on: MALME-3M melanoma
U251 glioblastoma = tested on: U251 glioblastoma

CC(C)=CCC/C(C)=C/CC/C(C)=C/CSc1ccccc1C(=O)O
GI50 (HL-60(TB) leukemia): 83.7 µM | TGI (HL-60(TB) leukemia): > 100 µM | GI50 (HS 578T breast): > 100 µM | TGI (HS 578T breast): > 100 µM | GI50 (SN12C renal): > 100 µM | TGI (SN12C renal): > 100 µM | GI50 (OVCAR-4 ovarian): > 100 µM | TGI (OVCAR-4 ovarian): > 100 µM | GI50 (SK-MEL-2 melanoma): > 100 µM | TGI (SK-MEL-2 melanoma): > 100 µM | GI50 (HCT-15 colon): 73.3 µM | TGI (HCT-15 colon): > 100 µM | GI50 (HCC-2998 colon): > 100 µM | TGI (HCC-2998 colon): > 100 µM | GI50 (SNB-75 CNS): > 100 µM | TGI (SNB-75 CNS): > 100 µM | GI50 (RPMI-8226 leukemia): 47.9 µM | TGI (RPMI-8226 leukemia): > 100 µM | GI50 (SK-MEL-5 melanoma): > 100 µM | TGI (SK-MEL-5 melanoma): > 100 µM | GI50 (TK-10 renal): > 100 µM | TGI (TK-10 renal): > 100 µM | GI50 (UACC-62 melanoma): > 100 µM | TGI (UACC-62 melanoma): > 100 µM | GI50 (NCI-H23 lung): > 100 µM | TGI (NCI-H23 lung): > 100 µM | GI50 (HT29 colon): > 100 µM | TGI (HT29 colon): > 100 µM | GI50 (CAKI-1 renal): > 100 µM | TGI (CAKI-1 renal): > 100 µM | GI50 (OVCAR-3 ovarian): > 100 µM | TGI (OVCAR-3 ovarian): > 100 µM | GI50 (UACC-257 melanoma): > 100 µM | TGI (UACC-257 melanoma): > 100 µM | GI50 (EKVX NSCLC): > 100 µM | TGI (EKVX NSCLC): > 100 µM | GI50 (NCI-H522 lung): 16.2 µM | TGI (NCI-H522 lung): 43.6 µM | GI50 (NCI-H322M lung): > 100 µM | TGI (NCI-H322M lung): > 100 µM | GI50 (MOLT-4 leukemia): 51.3 µM | TGI (MOLT-4 leukemia): > 100 µM | GI50 (MDA-MB-231 breast): > 100 µM | TGI (MDA-MB-231 breast): > 100 µM | GI50 (A549 NSCLC): 90.1 µM | TGI (A549 NSCLC): > 100 µM | GI50 (NCI-H226 lung): > 100 µM | TGI (NCI-H226 lung): > 100 µM | GI50 (NCI-H460 NSCLC): > 100 µM | TGI (NCI-H460 NSCLC): > 100 µM | GI50 (HOP-62 NSCLC): > 100 µM | TGI (HOP-62 NSCLC): > 100 µM | GI50 (SF-539 CNS): > 100 µM | TGI (SF-539 CNS): > 100 µM | GI50 (HOP-92 NSCLC): > 100 µM | TGI (HOP-92 NSCLC): > 100 µM | GI50 (CCRF-CEM leukemia): 45.2 µM | TGI (CCRF-CEM leukemia): > 100 µM | GI50 (MDA-MB-435 melanoma): > 100 µM | TGI (MDA-MB-435 melanoma): > 100 µM | GI50 (LOX IMVI melanoma): > 100 µM | TGI (LOX IMVI melanoma): > 100 µM | GI50 (COLO 205 colon): > 100 µM | TGI (COLO 205 colon): > 100 µM | GI50 (SR leukemia): 54.2 µM | TGI (SR leukemia): > 100 µM | GI50 (K-562 leukemia): > 100 µM | TGI (K-562 leukemia): > 100 µM | GI50 (DU-145 prostate): > 100 µM | TGI (DU-145 prostate): > 100 µM | GI50 (BT-549 breast): > 100 µM | TGI (BT-549 breast): > 100 µM | GI50 (SK-MEL-28 melanoma): > 100 µM | TGI (SK-MEL-28 melanoma): > 100 µM | GI50 (MCF7 breast): > 100 µM | TGI (MCF7 breast): > 100 µM | GI50 ([…]-0 renal): > 100 µM | TGI (786-0 renal): > 100 µM | GI50 (ACHN renal): > 100 µM | TGI (ACHN renal): > 100 µM | GI50 (OVCAR-5 ovarian): > 100 µM | TGI (OVCAR-5 ovarian): > 100 µM | GI50 (SF-295 CNS): > 100 µM | TGI (SF-295 CNS): > 100 µM | GI50 (HCT-116 colon): > 100 µM | TGI (HCT-116 colon): > 100 µM | GI50 (SNB-19 CNS): > 100 µM | TGI (SNB-19 CNS): > 100 µM | GI50 (NCI/ADR-RES ovarian): > 100 µM | TGI (NCI/ADR-RES ovarian): > 100 µM | GI50 (SK-OV-3 ovarian): > 100 µM | TGI (SK-OV-3 ovarian): > 100 µM | GI50 (M14 melanoma): > 100 µM | TGI (M14 melanoma): > 100 µM | GI50 (A498 renal): > 100 µM | TGI (A498 renal): > 100 µM | GI50 (MDA-MB-468 breast): > 100 µM | TGI (MDA-MB-468 breast): > 100 µM | GI50 (IGROV1 ovarian): > 100 µM | TGI (IGROV1 ovarian): > 100 µM | GI50 (PC-3 prostate): > 100 µM | TGI (PC-3 prostate): > 100 µM | GI50 (SW-620 colon): > 100 µM | TGI (SW-620 colon): > 100 µM | GI50 (KM12 colon): > 100 µM | TGI (KM12 colon): > 100 µM | GI50 (UO-31 renal): > 100 µM | TGI (UO-31 renal): > 100 µM | GI50 (RXF 393 renal): 70.4 µM | TGI (RXF 393 renal): > 100 µM | GI50 (T-47D breast): > 100 µM | TGI (T-47D breast): > 100 µM | GI50 (SF-268 CNS): > 100 µM | TGI (SF-268 CNS): > 100 µM | GI50 (MALME-3M melanoma): > 100 µM | TGI (MALME-3M melanoma): > 100 µM | GI50 (U251 glioblastoma): > 100 µM | TGI (U251 glioblastoma): > 100 µM
